Results on 8 molecules are retold here after US12227501B2, “3-amino-2-[2-(acylamino)pyridin-4-yl]-1,5,6,7-tetrahydro-4h-pyrrolo[3,2-c]pyridin-4-one as CSNK1 inhibitors” (Bayer Aktiengesellschaft, priority 2019, dated 2025).

Common to all, as to type: biochemical
Assay [1] has as its target wild-type Epidermal Growth Factor Receptor (EGFR) (Homo sapiens (Human), UniProt P00533). The assay is described as follows: WT-EGFR Kinase Assay (TR-FRET, 2 mM ATP). On the technique in general: Time-resolved FRET reads energy transfer from a long-lived donor to a nearby acceptor.
For assay [2], the target named is T1, human CSNK1A1 (Homo sapiens (Human), UniProt P48729). The assay is described as follows: CSNK1A1 High ATP Assay (ADP-Glo, 1 mM ATP). The conditions noted are these: read-out: CSNK1A1 high ATP assay IC50 [mol/l] (median). In short, it runs like this: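 GST-tagged full-length human CSNK1A1 from baculovirus-infected insect cells (typically about 0.4 ng/μL), pre-incubated with compound 15 min at 22 °C. Reaction with biotinylated peptide biotin-Ahx-KRRRAL-pS-VASLPGL at 1 mM ATP. ADP formed read by ADP-Glo luminescence.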
T1 sequence (P48729 whole entry): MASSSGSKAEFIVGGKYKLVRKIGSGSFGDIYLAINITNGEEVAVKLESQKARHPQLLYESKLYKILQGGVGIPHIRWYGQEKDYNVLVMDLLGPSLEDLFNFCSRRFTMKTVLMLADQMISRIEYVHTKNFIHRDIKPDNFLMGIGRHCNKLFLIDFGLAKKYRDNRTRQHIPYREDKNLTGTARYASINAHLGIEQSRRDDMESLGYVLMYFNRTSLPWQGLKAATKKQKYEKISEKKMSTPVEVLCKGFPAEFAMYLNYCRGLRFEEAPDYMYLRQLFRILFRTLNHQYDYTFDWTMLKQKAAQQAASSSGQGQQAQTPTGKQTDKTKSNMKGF

The target in assay [3] is T1, human CSNK1A1. The assay is described as follows: CSNK1A1 Assay 2 (ADP-Glo, 1 μM ATP). Conditions: substrate biotin-Ahx-KRRRAL-pS-VASLPGL, read-out: CSNK1A1 Assay 2 IC50 [mol/l] (median). In short, it runs like this:
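Full-length human CSNK1A1 as an N-terminal GST fusion (baculovirus/insect cells) with biotinylated peptide substrate biotin-Ahx-KRRRAL-pS-VASLPGL and 1 μM ATP, in HEPES pH 7.5 buffer. Compounds were pre-incubated with enzyme (~0.0375 ng/μL) for 15 min at 22 °C. Generated ADP was read by ADP-Glo luminescence as the activity measure.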
For orientation: In ADP-Glo the light output rises with the ADP produced.

Another assay addresses human CSNK1D (Homo sapiens (Human), UniProt P48730). The assay is described as follows: CSNK1D Assay (ADP-Glo, 1 μM ATP). The conditions noted are these: read-out: CSNK1D IC50 [mol/l] (median). An outline of the steps:
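GST-tagged full-length human CSNK1D from baculovirus-infected insect cells, typically ~0.5 ng/μL, with biotinylated peptide substrate and 1 μM ATP in HEPES pH 7.5 buffer. Compound is preincubated with enzyme 15 min at 22 °C. ADP formed is quantified by ADP-Glo luminescence.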

The mark [4] stands for this setting: read-out: EGFR Wildtyp- 2 mM ATP IC50 [mol/l] (median).

Structures can show the parent of a compound that is named as a salt. Where two headings read alike, the source gives them in different places. Some results are limits rather than exact numbers.

Sequence of human CSNK1D (P48730 whole entry): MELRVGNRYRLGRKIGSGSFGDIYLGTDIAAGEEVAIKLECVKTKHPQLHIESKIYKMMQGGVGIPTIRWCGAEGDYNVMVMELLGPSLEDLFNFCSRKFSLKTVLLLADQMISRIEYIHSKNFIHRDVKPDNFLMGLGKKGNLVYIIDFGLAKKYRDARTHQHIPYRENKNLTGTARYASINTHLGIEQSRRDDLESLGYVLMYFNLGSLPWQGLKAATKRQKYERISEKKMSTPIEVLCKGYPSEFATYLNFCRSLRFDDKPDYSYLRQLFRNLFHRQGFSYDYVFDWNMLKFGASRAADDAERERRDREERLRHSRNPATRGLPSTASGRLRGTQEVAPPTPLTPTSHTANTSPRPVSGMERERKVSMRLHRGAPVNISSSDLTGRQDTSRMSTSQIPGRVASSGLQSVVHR
Sequence of wild-type Epidermal Growth Factor Receptor (EGFR) (P00533 669-1210): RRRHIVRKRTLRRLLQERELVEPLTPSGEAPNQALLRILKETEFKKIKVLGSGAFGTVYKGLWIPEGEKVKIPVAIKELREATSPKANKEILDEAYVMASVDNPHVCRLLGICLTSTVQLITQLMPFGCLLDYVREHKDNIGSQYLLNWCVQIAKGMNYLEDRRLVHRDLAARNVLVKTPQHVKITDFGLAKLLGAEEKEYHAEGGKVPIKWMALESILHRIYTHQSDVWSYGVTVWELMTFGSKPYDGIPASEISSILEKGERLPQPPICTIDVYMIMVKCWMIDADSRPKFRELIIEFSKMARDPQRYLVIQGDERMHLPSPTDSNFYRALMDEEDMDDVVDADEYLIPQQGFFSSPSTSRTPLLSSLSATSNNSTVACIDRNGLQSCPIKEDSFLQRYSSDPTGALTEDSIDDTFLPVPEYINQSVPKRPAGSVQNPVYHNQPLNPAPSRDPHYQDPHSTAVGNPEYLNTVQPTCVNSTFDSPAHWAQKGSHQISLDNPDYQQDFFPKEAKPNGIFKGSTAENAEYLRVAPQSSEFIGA

For `COC(=O)c1ccc(CC(=O)Nc2cc(-c3[nH]c4c(c3Nc3ccccc3)C(=O)N(C)CC4)ccn2)cc1` [Example 117, methyl 4-(2-{[4-(3-anilino-5-methyl-4-oxo-4,5,6,7-tetrahydro-1H-pyrrolo[3,2-c]pyridin-2-yl)pyridin-2-yl]amino}-2-oxoethyl)benzoate], the IC50 was determined as 1270 nM in assay [1] (setting [4]), 96.2 nM at human CSNK1A1 [2], 1.46 nM on human CSNK1A1 [3] and 2.99 nM at human CSNK1D.
For `CC1(C)Cc2[nH]c(-c3ccnc(NC(=O)Cc4ccc(F)cc4)c3)c(Nc3cccc(F)c3)c2C(=O)N1` [Example 119, N-{4-[3-(3-fluoroanilino)-6,6-dimethyl-4-oxo-4,5,6,7-tetrahydro-1H-pyrrolo[3,2-c]pyridin-2-yl]pyridin-2-yl}-2-(4-fluorophenyl)acetamide], in that order: 2540 nM, 354 nM, 5.65 nM and 10.8 nM.
On to `O=C(Cc1ccc(F)cc1)Nc1cc(-c2[nH]c3c(c2Nc2cccc(F)c2Cl)C(=O)NC2(CCC2)C3)ccn1` [Example 122, N-{4-[3′-(2-chloro-3-fluoroanilino)-4′-oxo-1′,4′,5′,7′-tetrahydrospiro[cyclobutane-1,6′-pyrrolo[3,2-c]pyridin]-2′-yl]pyridin-2-yl}-2-(4-fluorophenyl)acetamide], for which the IC50 in assay [1] (setting [4]) was found to be 2150 nM; at human CSNK1A1 [2], 26.8 nM; on human CSNK1A1 [3], 4.12 nM; on human CSNK1D, 4.71 nM.
Consider `O=C(Cc1ccc(F)cc1)Nc1cc(-c2[nH]c3c(c2Nc2ccccc2)C(=O)NC2(CC2)C3)ccn1` [Example 146, N-[4-(3′-anilino-4′-oxo-1′,4′,5′,7′-tetrahydrospiro[cyclopropane-1,6′-pyrrolo[3,2-c]pyridin]-2′-yl)pyridin-2-yl]-2-(4-fluorophenyl)acetamide], for which the IC50 in assay [1] (setting [4]) is 667 nM; on human CSNK1A1 [2], 5.04 nM; on human CSNK1A1 [3], 1.38 nM; on human CSNK1D, 6.28 nM.
For the molecule `CN1CCc2[nH]c(-c3ccnc(NC(=O)Cc4ccc(F)cc4)c3)c(Nc3cc(F)ccc3F)c2C1=O` [Example 150, N-{4-[3-(2,5-difluoroanilino)-5-methyl-4-oxo-4,5,6,7-tetrahydro-1H-pyrrolo[3,2-c]pyridin-2-yl]pyridin-2-yl}-2-(4-fluorophenyl)acetamide], the IC50 in assay [1] (EGFR Wildtyp- 2 mM ATP IC50 [mol/l] (median)) was greater than 20000 nM; in assay [1] (setting [4]) it was 18300 nM; on human CSNK1A1 [2] it was 1270 nM; on human CSNK1A1 [3], 17.9 nM; on human CSNK1D it was 26.6 nM.
For the molecule `COCCNC(=O)c1ccc(CC(=O)Nc2cc(-c3[nH]c4c(c3Nc3ccccc3)C(=O)N(C)CC4)ccn2)cc1` [Example 152, 4-(2-{[4-(3-anilino-5-methyl-4-oxo-4,5,6,7-tetrahydro-1H-pyrrolo[3,2-c]pyridin-2-yl)pyridin-2-yl]amino}-2-oxoethyl)-N-(2-methoxyethyl)benzamide], the IC50 in assay [1] (setting [4]) was 1660 nM; on human CSNK1A1 [2] it was 37 nM; on human CSNK1A1 [3] it was 2.45 nM; at human CSNK1D, 7.96 nM.
For the molecule `CN1CCc2[nH]c(-c3ccnc(NC(=O)Cc4ccc(C(=O)N5CCNCC5)cc4)c3)c(Nc3ccccc3)c2C1=O` [Example 153, N-[4-(3-anilino-5-methyl-4-oxo-4,5,6,7-tetrahydro-1H-pyrrolo[3,2-c]pyridin-2-yl)pyridin-2-yl]-2-[4-(piperazine-1-carbonyl)phenyl]acetamide], the IC50 in assay [1] (setting [4]) turned out to be 287 nM; on human CSNK1A1 [2], 73.9 nM; on human CSNK1A1 [3], 1.96 nM; at human CSNK1D it was 9.28 nM.
Turning to `CN1CCc2[nH]c(-c3ccnc(NC(=O)Cc4ccc(F)cc4)c3)c(Nc3cccc(F)c3F)c2C1=O` [Example 154, N-{4-[3-(2,3-difluoroanilino)-5-methyl-4-oxo-4,5,6,7-tetrahydro-1H-pyrrolo[3,2-c]pyridin-2-yl]pyridin-2-yl}-2-(4-fluorophenyl)acetamide formamide salt], the IC50 in assay [1] (setting [4]) was greater than 20000 nM; at human CSNK1A1 [2] it was 119 nM; on human CSNK1A1 [3], 3.33 nM; on human CSNK1D, 4.45 nM.
